These results are taken from patent publication US5210075A, “Interleukin 6 antagonist peptides” (Tanabe Seiyaku Co., Ltd., priority 1990, dated 1993).

The subject of the test is IL-6 mediated proliferation of B9.9 cells. The experiment in a line: IL-6-dependent B9.9 cell proliferation assay. It counts as cell-based, mouse. To be noted: peptide concentration = 250 μM. The text has this: Peptides according to the invention were synthesized by the solid phase peptide synthesis method (Merrifield, J. Am. Chem. Soc. 85:2149, 1963). The amino acid numbering of peptides derived from the IL-6 receptor (IL-6R) sequence is based on the published sequence of Yamasaki, et al, (Science 241:825, 1988), and numbering of peptides derived from the IL-6 sequence is based on the sequence of IL-6 as published by Hirano, et al. (Nature 324:73, 1986). The numbering refers to the position of the amino acids in the mature protein after excision of the signal sequence. Activity was established in an IL-6-dependent B9.9 cell proliferation assay as described hereunder.
IL-6 antagonist activity of the subject peptides was measured using the IL-6 dependent B9.9 hybridoma cell line as described in Brakenhoff et al., J. Immunol. […]
1×10^4 cells were cultured in presence of 4-fold serial dilutions (1:16 to 1:65,536) of F-IL-6 in RPMI supplemented with 10% fetal calf serum, 2 mM L-glutamine, and 5 ×10^-5 M 2-mercaptoethanol in flat bottom microtiter plates. After 2 days the cells were incubated for 4 hours with 3-(4,5-dimethylthiazol-2-yl)-diphenyl tetrazolium bromide (MTT) and the absorbance was measured at 570-650 nm as described in Mosmann, J. Immunol. […] One unit of IL-6 was defined as the amount of IL-6 required to obtain half maximal proliferation and was calculated by probit analysis. […]

On to “Ac-GQLRAQEEFGQGE-NH2 [Ac-GQLRAQEEFGQGE-NH2]”, for which the “Percent Inhibition of IL-6 mediated proliferation of B9.9 cells” value was 92 ± 6%.

Consider GAAAENNNLNLP, for which the “Percent Inhibition of IL-6 mediated proliferation of B9.9 cells” value was 29 ± 19%.
